Measured values reported in patent US10463681B2, “Combination therapy for skin disorders” (M. Alphabet 1, LLC, priority 2010, dated 2019).

Legend:
Assay type in all cases: in vivo, human
[1] = tested on: comedones and nodular and inflammatory lesions (acne in patients); test: Placebo-controlled study in acne patients: counts of comedones and nodular and inflammatory lesions on the face
Method: (§1) Thirty-five patients (13-55 years of age) were enrolled in a placebo-controlled study. Twenty-seven patients were treated with oral administration of a capsule containing the ingredients of Formula 1 and eight patients were treated with a placebo capsule containing only doxycycline hyclate (50 mg). Patients received Formula 1 or placebo twice daily for twelve weeks. The number of comedones (“blackheads”) and nodular and inflammatory lesions (>2 mm in diameter) were counted on the face of each patient at baseline and at two weeks, six weeks and twelve weeks post-treatment.
The results are shown as the change at baseline and the percent change from baseline for each outcome measure after twelve weeks of treatment. Data are reported as mean values (±standard error of the mean, SEM) for each outcome measure. The results for ‘total lesions’ includes both comedones and inflammatory and nodular lesions.

[2] = tested on: porphyrins, a measure of bacteria in pores; test: Visia complexion analysis: average number of porphyrins
Method: Thirty-five patients (13-55 years of age) were enrolled in a placebo-controlled study. Twenty-seven patients were treated with oral administration of a capsule containing the ingredients of Formula 1 and eight patients were treated with a placebo capsule containing only doxycycline hyclate (50 mg). Patients received Formula 1 or placebo twice daily for twelve weeks. The number of comedones (“blackheads”) and nodular and inflammatory lesions (>2 mm in diameter) were counted on the face of each patient at baseline and at two weeks, six weeks and twelve weeks post-treatment. […] Lastly, the Visia™ complexion analysis system was used to assess the average number of porphyrins, a measure of bacteria in pores, in each patient.

[3] = tested on: inflammatory and nodular lesions and comedones (acne in patients); test: Investigator Global Assessment (IGA) score of the appearance of inflammatory and nodular lesions and comedones; settings: score of 1 to 10, 10 indicating the most improvement
Method: as §1
Next, an Investigator Global Assessment (IGA) score measuring the improvement of the appearance of inflammatory and nodular lesions and comedones was determined for each patient at baseline and 2 weeks and 6 weeks post-treatment. For this assessment the investigators were asked to evaluate whether their patient's lesions and comedones improved using a score of 1 to 10 with 10 indicating the most improvement.

patients = test: Untoward effects in the placebo-controlled patient study; settings: twice daily for twelve weeks, oral capsule
Method: as §1

serious untoward effects (patients): No serious untoward effects
SMILES: C[C@H]1c2cccc(O)c2C(O)=C2C(=O)[C@]3(O)C(O)=C(C(N)=O)C(=O)[C@@H](N(C)C)[C@@H]3[C@@H](O)[C@@H]21 [Placebo, doxycycline hyclate]
Total Comedones, Change from baseline, % ([1]; 12 weeks vs baseline): −27.4%
Total Inflammatory and Nodular Lesions, Change from baseline, % ([1]; 12 weeks vs baseline): −50.9%
Total Lesions, Change from baseline, % ([1]; 12 weeks vs baseline): −35.6%
reduction of the total number of lesions (comedones and inflammatory and nodular lesions) ([1]; after twelve weeks of treatment): 35.6%
reduction of the average number of comedones at twelve weeks compared to baseline ([1]; twelve weeks vs baseline): 27.4%
average number of comedones, week 2 ([1]; week 2): 29.0
average number of comedones, week 6 ([1]; week 6): 11.8
Por (BL), average number of porphyrins ([2]; baseline): 31.6
Por (W2), average number of porphyrins ([2]; week 2): 25.8
Por (W6), average number of porphyrins ([2]; week 6): 15.7
Por (W12), average number of porphyrins ([2]; week 12): 35.5
IGA score, baseline ([3]; baseline): 2.3
IGA score, six weeks ([3]; six weeks): 2.5
